In patent publication US20100316631A1, “Water Soluble Curcumin-Based Compounds” (THE UAB RESEARCH FOUNDATION, priority 2006, published 2010):

Columns and labels:
PC-3 = assay: Cytotoxicity assay, PC-3 (prostate); details: Homo sapiens, PC-3, read-out: Cytotoxicity IC50, PC-3
Method: (§1) The growth inhibitory effects of conjugates 5 and 8 were examined through a series of cytoxcicity assays against a variety of cancer cell types of human origin. The cell types tested were PC-3 (prostate), LS-174T (colon), MIA PaCa-2 (pancreatic) and BxPC-3 (pancreatic).
(§2) The surviving cell populations were counted on the fourth day after treatment (96 hour post-treatment). The viable cells were then counted and the numbers of treated cells were normalized against the untreated controls (taken as 100%).
(§3) Tumor cells (as indicated) were maintained as monolayers in 75-cm^2 tissue culture flasks using their respective cell culture medium containing 10% fetal bovine serum and 2 mM L-glutamine. Incubation was at 37° C. under a humidified 5% CO2: air atmosphere (standard conditions) for five days. The cells were harvested when in mid-log growth and their concentration was determined using a particle counter (Beckman Coulter, Inc, Fullerton, Calif.). An aliquot of the cell suspension was diluted in culture medium for delivery to a 24-well tissue culture plate at a range of 10,000 to 30,000 per 1 mL per well. […] Following a 96-h incubation under standard conditions from the initial treatment, the viable cells were counted and the numbers were normalized to the percent of untreated controls. […]

MIA PaCa-2 = assay: Cytotoxicity assay, MIA PaCa-2 (pancreatic); details: Homo sapiens, MIA PaCa-2, read-out: Cytotoxicity IC50, MIA PaCa-2
Method: as §1, §2, §3

LS-174T = assay: Cytotoxicity assay, LS-174T (colon); details: Homo sapiens, LS174T, read-out: Cytotoxicity IC50, LS-174T
Method: as §1, §2, §3

[1] = cited from earlier work
BxPC-3 = assay: Cytotoxicity assay, BxPC-3 (pancreatic); details: Homo sapiens, BXPC-3, read-out: Cytotoxicity IC50, Bx-PC3
Method: as §1, §2, §3

COc1cc(/C=C/C(=O)CC(=O)/C=C/c2ccc(O)c(OC)c2)ccc1O [Curcumin, (E,E)-1,7-bis(4-hydroxy-3-methoxyphenyl)-1,6-heptadiene-3,5-dione]
IC50 (PC-3): 12 ± 1.35 µM | IC50 (MIA PaCa-2): 9 ± 2.5 µM | IC50 (LS-174T): 6.5 ± 1.4 µM | solubility in water and other aqueous solutions [1]: insoluble | IC50 (BxPC-3): 2 ± 0.3 µM
